Experimental data taken from patent publication US20050106242A1, “Melt blend dispersions” (priority 2003, published 2005).
Converted amounts (≈) assume the structure as drawn.

Tests used:
[1] = Water solubility of progesterone in artificial intestinal fluid; type: physicochemical; conditions: fassgf or other biorelevant; at 37° C. in artificial intestinal fluid (AIF)
[2] = Particle size of progesterone precipitation in AIF (Horiba LA-910 laser scattering); type: physicochemical; conditions: ~4 mg progesterone in 15 ml AIF, shaken at 37° C.; FIG. 1 and FIG. 2
Experimental: Samples as indicated below containing ˜4 mg of progesterone were added to 15 ml AIF and then were shaken in a water bath at 37° C. The particle size of the progesterone precipitation was measured with Horiba LA-910 laser scattering particle size analyzer.

SMILES: CC(=O)[C@H]1CC[C@H]2[C@@H]3CCC4=CC(=O)CC[C@]4(C)[C@H]3CC[C@]12C [Progesterone, pregn-4-ene-3,20-dione]
- solubility [1]: 12 µg/mL (≈ 38.2 µM)
- mean particle size [2]: 72.4 μm
